Source: the NIST ThermoML archive (doi:10.1021/je400655j)

Assay: wn = mass fraction of the nth substance listed
Conditions: 101 kPa, Liquid; for mass density: Vibrating tube method; for viscosity: Concentric cylinders viscometry

CC(=O)[O-].CCCCn1cc[n+](C)c1 [1-butyl-3-methylimidazolium acetate] + CC(CC(C)(C)C)CP(=O)([O-])CC(C)CC(C)(C)C.CCCCCCCCCCCCCC[P+](CCCCCC)(CCCCCC)CCCCCC
Conditions | mass density, w1 = 0.2 [kg/m3] | mass density, w1 = 0.5 [kg/m3] | viscosity, w1 = 0.2 [mPa·s] | viscosity, w1 = 0.5 [mPa·s]
293 K | 908.8 | 937.1 | – | –
298 K | 905.6 | 933.6 | 160 | 33
303 K | 902.4 | 930.1 | 123 | 27
308 K | 899.3 | 926.6 | 97 | 22
313 K | 896.1 | 923.1 | 77 | 19
318 K | 893 | 919.6 | 63 | 17
323 K | 889.9 | 916.1 | 52 | 15
328 K | 886.7 | 912.6 | 44 | 13
333 K | 883.5 | 909.2 | 37 | 12
338 K | 880.3 | 905.7 | 32 | 11
343 K | 877.1 | 902.2 | 28 | 10

CC(CC(C)(C)C)CP(=O)([O-])CC(C)CC(C)(C)C.CCCCCCCCCCCCCC[P+](CCCCCC)(CCCCCC)CCCCCC + O
Conditions | mass density, w2 = 0.05 [kg/m3] | mass density, w2 = 0.1 [kg/m3] | viscosity, w2 = 0.05 [mPa·s] | viscosity, w2 = 0.1 [mPa·s]
293 K | 899.1 | 907.3 | – | –
298 K | 895.8 | 903.9 | 281 | 174
303 K | 892.6 | 900.7 | 203 | 137
308 K | 889.3 | 897.4 | 150 | 103
313 K | 886.1 | 894.1 | 114 | 78
318 K | 882.9 | 890.7 | 87 | 59
323 K | 879.7 | 887.4 | 68 | 47
328 K | 876.5 | 884 | 54 | 37
333 K | – | – | 44 | 31
338 K | – | – | 36 | 25
343 K | – | – | 31 | 23
